Test results published in PubChem BioAssay AID248 (DTP/NCI, 2004).
“And” between values parts separate entries of the source, which are not always exact repeats. Identical values can stand only once. Toxic doses and inconclusive results are not listed. No stated cut-off is given here; in the data, active means T/C of 150% or more; inactive means T/C below 125%.

System: L1210 leukemia ip in BDF1 mice, survival T/C
Test: NCI In Vivo Anticancer Drug Screen. Data for tumor model L1210 Leukemia (intraperitoneal) in B6D2F1 (BDF1) mice
Conditions: endpoint: mean survival time, higher = longer survival
How it was run: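 Tumor cells were implanted, animals were treated, and survival was followed. The result divides the treated measurement by the vehicle-control measurement.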

[1] = dose: 50.0 mg/kg/injection, schedule: Q01DX009 (ip), vehicle: saline
[2] = dose: 100.0 mg/kg/injection, schedule: Q04DX003 (ip), vehicle: saline with Tween-80
[3] = dose: 200.0 mg/kg/injection, schedule: Q04DX003 (ip), vehicle: saline with Tween-80
[4] = dose: 400.0 mg/kg/injection, schedule: Q04DX003 (ip), vehicle: saline with Tween-80
[5] = dose: 100.0 mg/kg/injection, schedule: Q04DX003 (ip), vehicle: Klucel (hydroxypropylcellulose) (HPC)
[6] = dose: 200.0 mg/kg/injection, schedule: Q04DX003 (ip), vehicle: Klucel (hydroxypropylcellulose) (HPC)
[7] = dose: 400.0 mg/kg/injection, schedule: Q04DX003 (ip), vehicle: Klucel (hydroxypropylcellulose) (HPC)
[8] = dose: 100.0 mg/kg/injection, schedule: Q01DX009 (ip), vehicle: Klucel (hydroxypropylcellulose) (HPC)
[9] = dose: 100.0 mg/kg/injection, schedule: Q04DX002 (ip), vehicle: Klucel (hydroxypropylcellulose) (HPC)
[10] = dose: 200.0 mg/kg/injection, schedule: Q01DX009 (ip), vehicle: Klucel (hydroxypropylcellulose) (HPC)
[11] = dose: 200.0 mg/kg/injection, schedule: Q04DX002 (ip), vehicle: Klucel (hydroxypropylcellulose) (HPC)
[12] = dose: 400.0 mg/kg/injection, schedule: Q01DX009 (ip), vehicle: Klucel (hydroxypropylcellulose) (HPC)
[13] = dose: 400.0 mg/kg/injection, schedule: Q04DX002 (ip), vehicle: Klucel (hydroxypropylcellulose) (HPC)
[14] = dose: 25.0 mg/kg/injection, schedule: Q01DX009 (ip), vehicle: saline
[15] = dose: 100.0 mg/kg/injection, schedule: Q04DX002 (ip), vehicle: saline
[16] = dose: 25.0 mg/kg/injection, schedule: Q01DX009 (ip), vehicle: saline with Tween-80
[17] = dose: 50.0 mg/kg/injection, schedule: Q01DX009 (ip), vehicle: saline with Tween-80
[18] = dose: 100.0 mg/kg/injection, schedule: Q01DX009 (ip), vehicle: saline with Tween-80
[19] = dose: 200.0 mg/kg/injection, schedule: Q01DX009 (ip), vehicle: saline with Tween-80
[20] = dose: 100.0 mg/kg/injection, schedule: Q04DX003 (ip), vehicle: other
[21] = dose: 200.0 mg/kg/injection, schedule: Q04DX003 (ip), vehicle: other
[22] = dose: 400.0 mg/kg/injection, schedule: Q04DX003 (ip), vehicle: other

Measured: T/C

Cc1cc(C(C)(C)c2ccc(O)c(C)c2)ccc1O
inactive: [1] 97 % of control | dose: 100.0 mg/kg/injection, schedule: Q01DX009 (ip), vehicle: saline 97 % of control | [2] 100 % of control | dose: 200.0 mg/kg/injection, schedule: Q01DX009 (ip), vehicle: saline 94 % of control | [3] 102 % of control | [4] 107 % of control

O=c1cc(Nc2cccc3cc4ccccc4cc23)[nH]c(=O)[nH]1
inactive: dose: 38.0 mg/kg/injection, schedule: Q01DX001 (ip), vehicle: Klucel (hydroxypropylcellulose) (HPC) 93 % of control | dose: 75.0 mg/kg/injection, schedule: Q01DX001 (ip), vehicle: Klucel (hydroxypropylcellulose) (HPC) 93 % of control | dose: 150.0 mg/kg/injection, schedule: Q01DX001 (ip), vehicle: Klucel (hydroxypropylcellulose) (HPC) 90 % of control

COc1cc(OC)cc(OC)c1
inactive: [5] 100 % of control | [6] 105 % of control | [7] 97 % of control

CCCNC(=O)C1C2C=CC(C2)C1C(=O)NCCC (centres undefined)
inactive: [2] 91 % of control | [3] 91 % of control | [4] 91 % of control

CCCCS(=O)(=O)Cc1ccccc1
inactive: [8] 98 % of control | [9] 100 % of control | [10] 103 % of control | [11] 96 % of control | [12] 98 % of control | [13] 93 % of control

C[N+](C)(C)c1ccc(/C=C2/CCCCC2=O)cc1
inactive: dose: 12.5 mg/kg/injection, schedule: Q01DX009 (ip), vehicle: saline 117 % of control | dose: 12.5 mg/kg/injection, schedule: Q04DX003 (ip), vehicle: saline 97 % of control | [14] 100 % of control | dose: 25.0 mg/kg/injection, schedule: Q04DX003 (ip), vehicle: saline 92 % of control | [1] 103 % of control | dose: 50.0 mg/kg/injection, schedule: Q04DX003 (ip), vehicle: saline 106 % of control

COc1cc(CC2C(O)C3CCN2CC3)cc(OC)c1OC (centres undefined)
inactive: dose: 25.0 mg/kg/injection, schedule: Q04DX002 (ip), vehicle: saline 101 % of control | dose: 50.0 mg/kg/injection, schedule: Q04DX002 (ip), vehicle: saline 101 % of control | [15] 97 % of control and 104 % of control

O=[N+]([O-])c1cc(Cl)ccc1S(=O)(=O)O
inactive: [5] 101 % of control | [6] 93 % of control | [7] 98 % of control

O=C1OCCN1S(=O)(=O)c1ccc(Cl)c(Cl)c1
inactive: [8] 87 % of control | [5] 100 % of control | [10] 97 % of control | [6] 105 % of control | [12] 90 % of control | [7] 101 % of control

CCOc1ccccc1NC1=C(OC)C(=O)C(Nc2ccccc2OCC)=C(OC)C1=O
inactive: dose: 50.0 mg/kg/injection, schedule: Q01DX001 (ip), vehicle: carboxymethylcellulose (CMC) 97 % of control | dose: 100.0 mg/kg/injection, schedule: Q01DX001 (ip), vehicle: carboxymethylcellulose (CMC) 103 % of control | [8] 95 % of control | [5] 98 % of control | dose: 200.0 mg/kg/injection, schedule: Q01DX001 (ip), vehicle: carboxymethylcellulose (CMC) 101 % of control | [6] 90 % of control | dose: 400.0 mg/kg/injection, schedule: Q01DX001 (ip), vehicle: carboxymethylcellulose (CMC) 113 % of control | [12] 90 % of control | [7] 101 % of control

CCCCCC/C=C/C1CC(=O)OC1=O (centres undefined)
inactive: [16] 100 % of control | [17] 88 % of control | dose: 50.0 mg/kg/injection, schedule: Q04DX003 (ip), vehicle: saline with Tween-80 98 % of control | [18] 100 % of control | [2] 101 % of control and 112 % of control | [19] 97 % of control | [3] 95 % of control and 101 % of control | [4] 103 % of control

CC(=O)OCC(C)c1ccccc1 (centres undefined)
inactive: [15] 96 % of control | dose: 200.0 mg/kg/injection, schedule: Q04DX002 (ip), vehicle: saline 103 % of control | dose: 400.0 mg/kg/injection, schedule: Q04DX002 (ip), vehicle: saline 96 % of control

C/C=C1\CN2CCc3c([nH]c4ccccc34)C2CC1CC(=O)N(C)C (centres undefined)
inactive: [2] 96 % of control | [3] 88 % of control

NN(CC(=O)O)c1ccccc1
inactive: [18] 100 % of control | [19] 105 % of control | dose: 400.0 mg/kg/injection, schedule: Q01DX009 (ip), vehicle: saline with Tween-80 94 % of control

Cc1ccc(C)c(C(=O)CCCCl)c1
inactive: [2] 98 % of control

CC(=O)O[C@@]1(C)[C@@H](C)C(=O)O[C@@H]2CCN3CC=C(COC(=O)[C@]1(C)O)[C@H]23
inactive: dose: 6.25 mg/kg/injection, schedule: Q01DX009 (ip), vehicle: other 97 % of control | dose: 12.5 mg/kg/injection, schedule: Q01DX009 (ip), vehicle: other 94 % of control | dose: 25.0 mg/kg/injection, schedule: Q01DX009 (ip), vehicle: other 120 % of control | [14] 114 % of control | dose: 50.0 mg/kg/injection, schedule: Q01DX009 (ip), vehicle: carboxymethylcellulose (CMC) 124 % of control | dose: 100.0 mg/kg/injection, schedule: Q01DX009 (ip), vehicle: carboxymethylcellulose (CMC) 118 % of control

CCCCCCCCCCCCCCCCCCCCCCCCCCCCCCCS
inactive: dose: 100.0 mg/kg/injection, schedule: Q01DX001 (ip), vehicle: other 95 % of control | dose: 200.0 mg/kg/injection, schedule: Q01DX001 (ip), vehicle: other 103 % of control

CC1(C)N=C(N)N=C(N)N1c1cccc(OCCCOc2cccc(N)c2)c1
inactive: dose: 25.0 mg/kg/injection, schedule: Q01DX001 (ip), vehicle: saline 97 % of control | dose: 50.0 mg/kg/injection, schedule: Q01DX001 (ip), vehicle: saline 98 % of control

Cc1c(C)c(CC#N)c(C)c(C)c1CC#N
inactive: [8] 86 % of control | [5] 91 % of control | [10] 88 % of control | [6] 88 % of control | [7] 94 % of control

O=COC(CCCc1ccccc1)c1ccc2c(c1)OCO2 (centres undefined)
inactive: [20] 93 % of control | [21] 93 % of control | [22] 98 % of control

O=C(O)C1CCCCC1C(=O)NCc1ccccc1Cl (centres undefined)
inactive: [9] 100 % of control | [11] 100 % of control | [13] 96 % of control

CC(=O)Nc1c(Cc2cc(O)c3ncccc3c2NC(C)=O)cc(O)c2ncccc12
inactive: dose: 75.0 mg/kg/injection, schedule: Q01DX001 (ip), vehicle: other 96 % of control | dose: 150.0 mg/kg/injection, schedule: Q01DX001 (ip), vehicle: other 100 % of control | dose: 300.0 mg/kg/injection, schedule: Q01DX001 (ip), vehicle: other 103 % of control

O=[N+]([O-])c1ccc(Cl)c2ccccc12
inactive: dose: 12.5 mg/kg/injection, schedule: Q01DX009 (ip), vehicle: saline with Tween-80 94 % of control | [16] 91 % of control | [17] 87 % of control | [18] 91 % of control | [19] 88 % of control

CCCCCCCC[Se](=O)O
inactive: dose: 5.0 mg/kg/injection, schedule: Q01DX001 (ip), vehicle: carboxymethylcellulose (CMC) 95 % of control | dose: 10.0 mg/kg/injection, schedule: Q01DX001 (ip), vehicle: carboxymethylcellulose (CMC) 109 % of control | dose: 20.0 mg/kg/injection, schedule: Q01DX001 (ip), vehicle: carboxymethylcellulose (CMC) 109 % of control

Nc1ncnc(N)c1NC(=O)Cc1cccc([N+](=O)[O-])c1
inactive: dose: 12.5 mg/kg/injection, schedule: Q01DX001 (ip), vehicle: Klucel (hydroxypropylcellulose) (HPC) 101 % of control | dose: 25.0 mg/kg/injection, schedule: Q01DX001 (ip), vehicle: Klucel (hydroxypropylcellulose) (HPC) 110 % of control | dose: 50.0 mg/kg/injection, schedule: Q01DX001 (ip), vehicle: Klucel (hydroxypropylcellulose) (HPC) 96 % of control and 103 % of control

Cc1cc2cccc(CN)c2cc1C
inactive: dose: 100.0 mg/kg/injection, schedule: Q01DX001 (ip), vehicle: Klucel (hydroxypropylcellulose) (HPC) 93 % of control

CCSC1C(OC(C)=O)OC(C(COC(C)=O)OC(C)=O)C1OC(C)=O (centres undefined)
inactive: [20] 96 % of control | [21] 96 % of control | [22] 96 % of control
